Consider 2 compounds from ChEMBL document CHEMBL5584309, “Discovery of Novel Mcl-1 Inhibitors with a 3-Substituted-1H-indole-1-yl Moiety Binding to the P1-P3 Pockets to Induce Apoptosis in Acute Myeloid Leukemia Cells” (J Med Chem, 2024).

What is called Ki is a dissociation constant, usually derived from enzyme kinetics or from competition with a known ligand. What is called IC50 is the concentration that inhibits the measured activity by half. A lower IC50 goes with inhibition by little substance. The term half-life denotes the time in which the quantity being followed falls by half. As a reminder, the Cmax is the peak of the concentration-time curve. By AUC(0-inf) is commonly meant the area under the concentration-time curve extrapolated to infinity. The low end stands for less exposure, the high end for more exposure. A word on the MRT inf: it is the average time that molecules of a dose stay in the body.

Data set [1] in a line: Metabolic stability in rat plasma assessed as compound remaining measured after 30 mins by LC-MS/MS analysis. It counts as ADME, cell-free. Conditions: read-out: Stability.
Data set [2] has as its system HL-60. The experiment in a line: Induction of apoptosis in human HL-60 cells assessed as early apoptotic cells at 10 uM measured after 24 hrs by Annexin V-FITC/propidium iodide double staining based assay (reference value: 3.37%). It is filed as functional.
Data set [3] concerns the target T1, Induced myeloid leukemia cell differentiation protein Mcl-1 (Homo sapiens, UniProt Q07820). The experiment in a line: Inhibition of Mcl-1 in human THP-1 cells assessed as dissociation of Bim from Mcl-1 at 20 uM measured after 24 hrs by Co-immunoprecipitation (Co-IP) assay. It is filed as cell-based.
For data set [4], the system named is HL-60. The data set is described as follows: Induction of apoptosis in human HL-60 cells assessed as necrotic cells at 2.5 uM measured after 24 hrs by Annexin V-FITC/propidium iodide double staining based assay (reference value: 0.18%). It is filed as functional.
Data set [5] has as its target T1, Induced myeloid leukemia cell differentiation protein Mcl-1. The data set is described as follows: Binding affinity to Mcl-1 (unknown origin) pre-incubated for 30 mins followed by addition FAM-peptide further incubated for 20 mins by fluorescence polarization-based binding assay. The settings on record: read-out: Ki.
The test system of data set [6] is HL-60. The data set is described as follows: Induction of apoptosis in human HL-60 cells assessed as late apoptotic cells at 5 uM measured after 24 hrs by Annexin V-FITC/propidium iodide double staining based assay (reference value: 3.78%). It counts as functional.
Data set [7] in a line: Metabolic stability in rat liver microsomes assessed as compound remaining measured after 5 mins by LC-MS/MS analysis. It is filed as ADME, Microsome.
For another data set, the target named is T2, Bcl-2-related protein A1 (Homo sapiens, UniProt Q16548).
T2 sequence (Q16548 whole entry): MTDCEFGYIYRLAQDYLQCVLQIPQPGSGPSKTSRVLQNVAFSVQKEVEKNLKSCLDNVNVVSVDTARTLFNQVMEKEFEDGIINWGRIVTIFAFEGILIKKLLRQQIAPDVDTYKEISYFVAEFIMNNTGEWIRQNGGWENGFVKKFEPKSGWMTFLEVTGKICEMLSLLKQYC
The experiment in a line: Binding affinity to Bfl-1 (unknown origin) pre-incubated for 30 mins followed by addition FAM-peptide further incubated for 20 mins by fluorescence polarization-based binding assay. (Polarisation of emitted light reports the rotation of a fluorescent probe.)

The nature of data set [8]: Metabolic stability in rat liver microsomes assessed as half life by LC-MS/MS analysis. It is filed as ADME, Microsome. On the technique in general: Liver microsomes are vesicles of endoplasmic reticulum, rich in cytochrome P450 enzymes.
The test system of data set [9] is HL-60. The experiment in a line: Induction of apoptosis in human HL-60 cells assessed as necrotic cells at 10 uM measured after 24 hrs by Annexin V-FITC/propidium iodide double staining based assay (reference value: 0.18%). It is filed as functional.
Another data set has as its system THP-1. The data set is described as follows: Induction of apoptosis in human THP-1 cells assessed as viable cells at 10 uM measured after 24 hrs by Annexin V-FITC/propidium iodide double staining based assay (reference value: 93.02%). It counts as functional. Conditions: read-out: Activity.
A short description of data set [10]: Toxicity in NOD SCID mouse xenografted with human THP-1 cells assessed as change in lung tissue at 40 to 80 mg/kg, ip once daily after 10 days of tumor inoculation treated for 14 days relative to control. Conditions: in vivo, 336 h, dose 40-80 mg/kg, time 14 day. It is filed as organism-based. (In xenograft studies the graft and the host belong to different species.)

Data set [11] in a line: Toxicity in NOD SCID mouse assessed as change in kidney tissue at 25 mg/kg, ip administered for 7 consecutive days by Hematoxylin-eosin (HE) staining based assay. It counts as organism-based. Conditions: in vivo, 168 h, time 7 day.
Data set [12] is described as follows: Toxicity in NOD SCID mouse xenografted with human HL-60 cells assessed as change in liver tissue at 80 mg/kg, ip once daily after 15 days of tumor inoculation treated for 12 days. It counts as organism-based. The settings on record: in vivo, 288 h, time 12 day.
A short description of data set [13]: Cytotoxicity against human AC16 cells assessed as change in intracellular calcium level at 20 uM measured after 24 hrs by Fluo-4 AM based flow cytometry. The settings on record: ac16 [human hybrid]. It is filed as toxicity, cell-based.
Data set [14] has as its system HL-60. The experiment in a line: In vivo antitumor activity against human HL-60 cells xenografted in female NOD SCID mouse assessed as reduction in tumor weight at 80 mg/kg, ip once daily after 15 days of tumor inoculation treated for 12 days. It counts as functional, organism-based. Conditions: time 12.0 day.
For data set [15], the system named is HL-60. The data set is described as follows: In vivo antitumor activity against human HL-60 cells xenografted in female NOD SCID mouse assessed as tumor growth inhibition at 80 mg/kg, ip once daily after 15 days of tumor inoculation treated for 12 days relative to control. The settings on record: HL-60, 288 h, time 12 day, read-out: TGI. It counts as functional.

A short description of data set [16]: Cmax in Sprague-Dawley rat at 20 mg/kg, ip measured upto 24 hrs by LC-MS/MS analysis. It counts as ADME, organism-based. Conditions: in vivo.
Data set [17] concerns HL-60. The experiment in a line: In vivo antitumor activity against human HL-60 cells xenografted in female NOD SCID mouse assessed as reduction in tumor volume at 80 mg/kg, ip once daily after 15 days of tumor inoculation treated for 12 days. It is filed as functional, organism-based. The settings on record: time 12.0 day.
Data set [18] can be described thus: Toxicity in NOD SCID mouse xenografted with human HL-60 cells assessed as change in lung tissue at 80 mg/kg, ip once daily after 15 days of tumor inoculation treated for 12 days. It is filed as organism-based. Conditions: in vivo, 288 h, time 12 day.
Data set [19] in a line: AUC (0 to infinity) in Sprague-Dawley rat at 5 mg/kg, iv measured upto 24 hrs by LC-MS/MS analysis. It is filed as ADME, organism-based. The settings on record: in vivo.
Data set [20] in a line: MRT (0 to infinity) in Sprague-Dawley rat at 5 mg/kg, iv measured upto 24 hrs by LC-MS/MS analysis. It counts as ADME, organism-based. Conditions: in vivo.
Data set [21] can be described thus: Toxicity in NOD SCID mouse xenografted with human HL-60 cells assessed as change in kidney tissue at 80 mg/kg, ip once daily after 15 days of tumor inoculation treated for 12 days. It is filed as organism-based. Conditions: in vivo.
Data set [22] in a line: MRT (0 to infinity) in Sprague-Dawley rat at 20 mg/kg, ip measured upto 24 hrs by LC-MS/MS analysis. Conditions: in vivo. It counts as ADME, organism-based.
The subject of data set [23] is HL-60. The experiment in a line: In vivo antitumor activity against human HL-60 cells xenografted in female NOD SCID mouse assessed as tumor growth inhibition at 40 mg/kg, ip once daily after 15 days of tumor inoculation treated for 12 days relative to control. It is filed as functional. Conditions: read-out: TGI.
The nature of data set [24]: Toxicity in NOD SCID mouse xenografted with human THP-1 cells assessed as change in heart tissue at 40 to 80 mg/kg, ip once daily after 10 days of tumor inoculation treated for 14 days relative to control. It is filed as organism-based. Conditions: in vivo, 336 h, dose 40-80 mg/kg, time 14 day.
Data set [25] in a line: Toxicity in NOD SCID mouse xenografted with human THP-1 cells assessed as change in kidney tissue at 40 to 80 mg/kg, ip once daily after 10 days of tumor inoculation treated for 14 days relative to control. The settings on record: in vivo, 336 h, dose 40-80 mg/kg, time 14 day. It counts as organism-based.
Data set [26] relates to HL-60. The experiment in a line: Induction of apoptosis in human HL-60 cells assessed as increase in Noxa measured after 24 hrs by Western blot analysis. It counts as functional, cell-based. Conditions: dose 10-20 µM.
A short description of data set [27]: Toxicity in NOD SCID mouse assessed as change in liver tissue at 25 mg/kg, ip administered for 7 consecutive days by Hematoxylin-eosin (HE) staining based assay. It counts as organism-based. Conditions: in vivo, 168 h, time 7 day.
A short description of data set [28]: Toxicity in NOD SCID mouse assessed as change in heart tissue at 25 mg/kg, ip administered for 7 consecutive days by Hematoxylin-eosin (HE) staining based assay. Conditions: in vivo, 168 h, time 7 day. It is filed as organism-based.
Data set [29] addresses Voltage-gated inwardly rectifying potassium channel KCNH2 (Homo sapiens, UniProt Q12809). The experiment in a line: Inhibition of hERG. It counts as toxicity.
The nature of data set [30]: Cmax in Sprague-Dawley rat at 5 mg/kg, iv measured upto 24 hrs by LC-MS/MS analysis. It counts as ADME, organism-based. Conditions: in vivo.

Calls of active or inactive are those of the source. The rule behind the calls is not given here. Bounds are passed on as bounds.

T1 sequence (Q07820 whole entry): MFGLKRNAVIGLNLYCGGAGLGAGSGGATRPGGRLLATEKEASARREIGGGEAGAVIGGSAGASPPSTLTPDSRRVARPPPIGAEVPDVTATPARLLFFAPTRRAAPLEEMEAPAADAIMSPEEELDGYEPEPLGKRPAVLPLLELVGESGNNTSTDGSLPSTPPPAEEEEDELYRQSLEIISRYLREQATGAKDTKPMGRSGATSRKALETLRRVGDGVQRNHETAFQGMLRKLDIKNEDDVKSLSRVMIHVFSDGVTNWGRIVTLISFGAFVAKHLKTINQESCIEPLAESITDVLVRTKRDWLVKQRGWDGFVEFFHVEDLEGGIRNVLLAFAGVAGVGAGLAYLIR
Sequence of Voltage-gated inwardly rectifying potassium channel KCNH2 (Q12809 whole entry): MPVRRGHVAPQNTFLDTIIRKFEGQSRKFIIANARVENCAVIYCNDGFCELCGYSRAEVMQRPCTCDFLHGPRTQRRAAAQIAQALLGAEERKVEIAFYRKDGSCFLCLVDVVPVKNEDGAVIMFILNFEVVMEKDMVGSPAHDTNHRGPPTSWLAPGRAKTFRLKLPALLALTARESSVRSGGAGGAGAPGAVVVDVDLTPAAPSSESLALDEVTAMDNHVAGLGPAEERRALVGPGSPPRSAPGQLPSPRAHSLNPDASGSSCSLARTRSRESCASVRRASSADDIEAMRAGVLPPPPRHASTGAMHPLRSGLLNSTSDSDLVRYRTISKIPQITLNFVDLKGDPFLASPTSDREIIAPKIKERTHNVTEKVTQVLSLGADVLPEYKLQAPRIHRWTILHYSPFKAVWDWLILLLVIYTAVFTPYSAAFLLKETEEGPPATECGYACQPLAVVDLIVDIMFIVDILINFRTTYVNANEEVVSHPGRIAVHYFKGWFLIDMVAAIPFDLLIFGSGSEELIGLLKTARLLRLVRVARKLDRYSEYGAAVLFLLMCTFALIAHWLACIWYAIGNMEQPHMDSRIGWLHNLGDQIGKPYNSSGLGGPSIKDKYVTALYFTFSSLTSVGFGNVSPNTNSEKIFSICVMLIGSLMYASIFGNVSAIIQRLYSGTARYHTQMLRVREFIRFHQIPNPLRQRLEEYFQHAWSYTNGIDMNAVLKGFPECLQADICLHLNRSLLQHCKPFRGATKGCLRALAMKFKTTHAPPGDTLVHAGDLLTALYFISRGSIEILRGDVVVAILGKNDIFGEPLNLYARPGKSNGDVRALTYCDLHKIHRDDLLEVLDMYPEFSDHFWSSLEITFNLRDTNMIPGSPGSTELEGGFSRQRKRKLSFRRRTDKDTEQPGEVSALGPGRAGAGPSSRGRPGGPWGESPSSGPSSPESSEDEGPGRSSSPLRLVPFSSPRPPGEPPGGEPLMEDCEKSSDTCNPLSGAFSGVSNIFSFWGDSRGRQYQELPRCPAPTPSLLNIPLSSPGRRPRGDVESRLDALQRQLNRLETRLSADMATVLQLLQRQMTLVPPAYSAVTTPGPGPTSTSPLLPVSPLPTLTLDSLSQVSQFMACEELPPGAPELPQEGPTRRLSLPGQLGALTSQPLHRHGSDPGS

As for `Cc1nn(C)c(COc2ccc(N3CCN(S(=O)(=O)N(C)C)CC3)cc2)c1-c1cccc2c(CCCOc3cccc4ccccc34)c(C(=O)O)n(CCN3CCOCC3)c12`, the remaining at 0.5 h in [1] was determined as 104%. Moreover, the Activity with HL-60 [2] is recorded as 11.84%; in the data set with HL-60 [4], 0.71%; in the data set on HL-60 [6], 4.82%; in the data set with HL-60 [9], 4.86%. The result in [3] was Active. Besides, the Ki in data set [5] was determined as 12 nM. Besides, the remaining at 5 min in data set [7] (liver microsomes, read-out: Stability) is 77.1%. The compound further gave an IC50 at Bcl-2-related protein A1 of more than 10000 nM. Besides, the half-life in [8] (liver microsomes) is 0.662 h. For the same compound, the viability at 10 µM in the data set with THP-1 came out at 92.9%.

Regarding `Cc1cc(OCCCc2c(C(=O)O)n(CCN3CCOCC3)c3c(-c4ccccc4Cn4cc(CCN(CCN5CCOCC5)S(=O)(=O)c5ccc(F)cc5)c5ccccc54)cccc23)cc(C)c1Cl`, in data set [1], the remaining at 0.5 h was found to be 87.7%. In addition, the Activity result is recorded as “Non-Toxic” in [10]; “Non-Toxic” in [11]; 12.51% with HL-60 [2]; “Non-Toxic” in [12]; “Non-Toxic” in data set [13]; 0.16% in the data set on HL-60 [4]. Moreover, the Activity in the data set on HL-60 [6] is 13.47%; in [18], “Non-Toxic”; in data set [21] it was “Non-Toxic”; in data set [24], “Non-Toxic”; in [25] it was “Non-Toxic”; in the data set on HL-60 [26], “Dose-Dependent Effect”. Besides, the Activity with HL-60 [9] is recorded as 0.2%; in data set [27] it was “Non-Toxic”; in data set [28], “Non-Toxic”. Also, the outcome (in the data set on HL-60 [14]; in data set [3]; in the data set with HL-60 [17]) was Active. In the data set with HL-60 [15], the inhibition in vivo at 80 mg/kg was found to be 63.7%. For the same compound, in [5], the Ki amounted to 24 nM. The maximum concentration (Cmax) came out at 6240 ng/mL in data set [16] and 46500 ng/mL in data set [30]. In addition, in data set [7] (microsomes, 5 min), the Stability stood at 69.3%. Besides, the IC50 at Bcl-2-related protein A1 was more than 10000 nM; in [29], more than 50000 nM. The t1/2 in [8] (microsomes) stood at 0.755 h. In data set [19], the AUC(0-inf) came out at 18800 ng·h/mL. The figures for the MRT inf in [20] and in [22] were 1.3 h and 7.03 h, respectively. Also, in the data set on HL-60 [23], the inhibition in vivo at 40 mg/kg came to 46.1%. The viability at 10 µM in the data set with THP-1 stood at 91.2%.
